The subject of one data set is Liver. Kind of data set: Unbound intrinsic clearance in Beagle dog liver microsomes at 1 uM. In kind it is ADME, Canis lupus familiaris, Microsome. (In general: Liver microsomes are a subcellular fraction often used to study metabolism.)
Data set [1] concerns Canis familiaris. Briefly: Unbound volume of distribution in Beagle dog at 0.5 mg/kg, iv. The settings on record: in vivo. In kind it is ADME, organism-based, Canis lupus familiaris. Also on record: dose 0.5 mg/kg, route intravenous.
Data set [2] in a line: Dissociation constant, pKa of the compound. Format: physicochemical.
The nature of data set [3]: Oral absorption in Beagle dog at 2 mg/kg, po. In kind it is ADME, organism-based, Canis lupus familiaris. Also on record: dose 2 mg/kg, route oral. To be noted: in vivo, read-out: Fabs.
The nature of data set [4]: Plasma clearance in Beagle dog at 0.5 mg/kg, iv. Format: ADME, organism-based, Canis lupus familiaris. Also on record: dose 0.5 mg/kg, route intravenous.
The test system of data set [5] is Canis familiaris. Kind of data set: Unbound plasma clearance in Beagle dog at 0.5 mg/kg, iv. More on the design: dose 0.5 mg/kg, route intravenous. In kind it is ADME, organism-based, Canis lupus familiaris. To be noted: in vivo.
Data set [6] in a line: Fraction unbound in Beagle dog liver microsomes at 1 uM. Format: ADME, Canis lupus familiaris, Microsome.
Data set [7] is described as follows: Elimination half life in Beagle dog at 0.5 mg/kg, iv. Also on record: dose 0.5 mg/kg, route intravenous. Format: ADME, organism-based, Canis lupus familiaris. To be noted: in vivo.
Data set [8] is described as follows: Oral bioavailability in Beagle dog at 2 mg/kg. The settings on record: in vivo. In kind it is ADME, organism-based, Canis lupus familiaris.
Data set [9] in a line: Metabolic stability in Beagle dog liver microsomes assessed as half life at 1 uM. Format: ADME, Canis lupus familiaris, Microsome.
Data set [10] can be described thus: Metabolic stability in human liver microsomes assessed as half life at 1 uM. Format: ADME, Microsome.
Data set [11] in a line: Lipophilicity, log D in 0.1M potassium phosphate buffer at pH 7.4. Format: physicochemical.
Data set [12] in a line: Fraction unbound in human liver microsomes at 1 uM. In kind it is ADME, Microsome.
In a further data set the test system is Liver microsomes. Briefly: Unbound intrinsic clearance in human liver microsomes at 1 uM. Format: ADME, Microsome.
The nature of data set [13]: Protein binding in Beagle dog plasma at 1 ug/ml. Format: ADME, cell-free, Canis lupus familiaris. To be noted: read-out: PPB (converted).
Data set [14] can be described thus: Volume of distribution in Beagle dog at 0.5 mg/kg, iv. Format: ADME, organism-based, Canis lupus familiaris. Also on record: dose 0.5 mg/kg, route intravenous. The settings on record: in vivo.
Data set [15] can be described thus: Metabolic stability in Sprague-Dawley rat bile assessed as drug remaining. Format: ADME.
A short description of data set [16]: Metabolic stability in Sprague-Dawley rat assessed as hepatic extraction ratio. Format: ADME, tissue-based. To be noted: liver.
Data set [17] in a line: Metabolic stability in Sprague-Dawley rat liver microsomes assessed as half life. Format: ADME, Microsome.
The nature of data set [18]: Antagonist activity at alpha-1-adrenoceptor in rat aorta assessed as inhibition of noradrenaline-mediated contraction. In kind it is functional, tissue-based.
Data set [19] is described as follows: Antagonist activity at alpha-1L-adrenoceptor in human prostate assessed as inhibition of noradrenaline-mediated contraction. In kind it is functional, tissue-based, Prostate gland.
Data set [20] can be described thus: Oral bioavailability in Sprague-Dawley rat at 4 mg/kg. In kind it is ADME, organism-based. To be noted: in vivo.
Data set [21] can be described thus: Oral bioavailability in Beagle dog at 4 mg/kg. Format: ADME, organism-based, Canis lupus familiaris. To be noted: in vivo.
Data set [22] in a line: Elimination half life in Sprague-Dawley rat at 0.5 mg/kg, iv. Format: ADME, organism-based. More on the design: dose 0.5 mg/kg, route intravenous. The settings on record: in vivo.
Data set [23] relates to Rattus norvegicus. Briefly: Unbound volume of distribution in Sprague-Dawley rat at 0.5 mg/kg, iv. More on the design: dose 0.5 mg/kg, route intravenous. To be noted: in vivo. In kind it is ADME, organism-based.
Data set [24] in a line: Oral absorption in Beagle dog at 4 mg/kg, po. Format: ADME, organism-based, Canis lupus familiaris. Also on record: dose 4 mg/kg, route oral. To be noted: in vivo, read-out: Fabs.
Data set [25] is described as follows: Cmax in human at 0.86 mg/kg, po. In kind it is ADME, organism-based. More on the design: dose 0.86 mg/kg, route oral. To be noted: in vivo.
For data set [26], the system named is Rattus norvegicus. Briefly: Unbound plasma clearance in Sprague-Dawley rat at 0.5 mg/kg, iv. Format: ADME, organism-based. Also on record: dose 0.5 mg/kg, route intravenous. The settings on record: in vivo.
The next data set is filed under the species Homo sapiens. Briefly: Protein binding in human plasma at 1 ug/ml. To be noted: read-out: PPB (converted).
A short description of data set [27]: Elimination half life in human at 0.86 mg/kg, po. Format: ADME, organism-based. To be noted: in vivo. Also on record: dose 0.86 mg/kg, route oral.
The nature of data set [28]: Volume of distribution in Sprague-Dawley rat at 0.5 mg/kg, iv. Format: ADME, organism-based. More on the design: dose 0.5 mg/kg, route intravenous. The settings on record: in vivo.
The nature of data set [29]: Cmax in Sprague-Dawley rat at 4 mg/kg, po. Format: ADME, organism-based. Also on record: dose 4 mg/kg, route oral. The settings on record: in vivo.
The nature of data set [30]: Elimination half life in Sprague-Dawley rat at 4 mg/kg, po. Format: ADME, organism-based. Also on record: dose 4 mg/kg, route oral. The settings on record: in vivo.
Data set [31] can be described thus: Tmax in human at 0.86 mg/kg, po. In kind it is ADME, organism-based. The settings on record: in vivo. Also on record: dose 0.86 mg/kg, route oral.
The nature of data set [32]: Tmax in Sprague-Dawley rat at 4 mg/kg, po. Format: ADME, organism-based. Also on record: dose 4 mg/kg, route oral. The settings on record: in vivo.
Data set [33] is described as follows: Protein binding in Sprague-Dawley rat plasma at 1 ug/ml. In kind it is ADME, cell-free. To be noted: read-out: PPB (converted).
Data set [34] is described as follows: Plasma clearance in Sprague-Dawley rat at 0.5 mg/kg, iv. More on the design: dose 0.5 mg/kg, route intravenous. In kind it is ADME, organism-based.
Data set [35] in a line: Oral absorption in Beagle dog at 0.5 mg/kg, po. Format: ADME, organism-based, Canis lupus familiaris. Also on record: dose 0.5 mg/kg, route oral. The settings on record: in vivo, read-out: Fabs.
Data set [36] in a line: Oral bioavailability in Beagle dog at 0.5 mg/kg. In kind it is ADME, organism-based, Canis lupus familiaris. To be noted: in vivo.

Each structure is given as a SMILES string.

One may read the pKa as the negative logarithm of the acid dissociation constant. A higher pKa goes with a weaker acid or stronger base. One may read the clearance as the rate of elimination divided by the concentration. For orientation: half-life means the time in which the quantity being followed falls by half. Broadly, the bioavailability is the share of a dose that reaches the circulation, judged against a reference dose that is usually intravenous. As usually defined, the logD is the decadic logarithm of the distribution of all forms, ionised or not, between an organic phase and buffer at a given pH. Lower therefore signals lower lipophilicity. For the compound `COc1cc2nc(N3CCCN(C(=O)N4CCOCC4)CC3)nc(N)c2cc1-c1ccccn1`, the results for the CL with Liver, with Canis familiaris [5] and in the data set on Liver microsomes were 162 mL/min/kg, 200 mL/min/kg and 96 mL/min/kg, respectively. Further, the Vd in the data set with Canis familiaris [1] came out at 20 L/kg; in data set [14], 4.3 L/kg. In addition, the pKa in data set [2] turned out to be 6.6. Besides, the Fa in data set [3] is 65%. This compound displayed a clearance in data set [4] of 23 mL/min/kg. Moreover, the fraction unbound at 1 µM is 0.791 in data set [6] and 0.637 in data set [12]. The compound also gave a half-life in data set [7] of 2.3 h. In [8], the bioavailability turned out to be 35%. For the same compound, the values for the half-life at 1 µM in data set [9] and in data set [10] were 0.233 h and 0.0833 h, respectively. The compound further yielded a pH-dependent lipophilicity (logD) in data set [11] of 2.1. For the same compound, the fraction unbound at 1 ug/ml in [13] is 0.22.
Consider `COc1cc2nc(N3CCCN(C(=O)N4CC(O)C(O)C4)CC3)nc(Nc3ccccn3)c2cc1OC` (configuration not stated), for which, in data set [15], the Stability stood at 100%. Also, the hepatic extraction ratio in data set [16] was 0.7. Moreover, in data set [17], the half-life was above 2 h.
One may read the pA2 as the negative logarithm of the molar antagonist concentration that doubles the agonist concentration needed for the same response. For the compound `COc1cc2nc(N3CCN(C(=O)C4CCCO4)CC3)nc(N)c2cc1OC` (configuration not stated) [TERAZOSIN], the pA2 came to 10 in data set [18] and 9.8 in data set [19].
Broadly, the Cmax is the highest concentration seen after dosing. For orientation: Tmax means the time at which the peak concentration occurs. Turning to `COc1cc2nc(N3CCCN(C(=O)N4CCOCC4)CC3)cc(N)c2c(-c2ccc(F)cc2)c1OC`, the CL in the data set on Liver is 100 mL/min/kg; in the data set on Canis familiaris [5], 536 mL/min/kg; in the data set with Rattus norvegicus [26], 61250 mL/min/kg; in the data set with Liver microsomes, 154 mL/min/kg. Further, the Vd was determined as 96 L/kg in the data set on Canis familiaris [1], 70 L/kg with Rattus norvegicus [23], 5.6 L/kg in data set [28] and 4.8 L/kg in [14]. In data set [2], the pKa was 8.5. For the same compound, the bioavailability in [20] is 11%; in data set [21], 71%. The clearance in [4] turned out to be 15 mL/min/kg; in data set [34] it was 91 mL/min/kg. Besides, the values for the fraction unbound at 1 µM in [6] and in data set [12] were 0.602 and 0.331, respectively. Further, the half-life in data set [7] was 6.3 h; in data set [22], 1 h; in data set [27], 12 h; in data set [30], 2.8 h. Further, the Fa in data set [24] was found to be 100%. The peak concentration (Cmax) in data set [25] turned out to be 63 ng/mL; in [29] it was 14 ng/mL. The half-life at 1 µM in [9] amounted to 0.5 h; in [10], 0.1 h. The compound also yielded a pH-dependent lipophilicity (logD) in data set [11] of 1.8. For the same compound, the fraction unbound at 1 ug/ml in the data set filed under Homo sapiens was 0.06; in [13] it was 0.04; in [33] it was 0.08. Besides, the time of peak concentration (Tmax) amounted to 0.7 h in [31] and 4 h in data set [32].
`COc1cc2nc(N3CCc4ncccc4C3)nc(N)c2c(-c2ncccn2)c1OC`: the CL in the data set with Liver turned out to be 50 mL/min/kg; in the data set with Canis familiaris [5] it was 450 mL/min/kg; in the data set on Liver microsomes, 12 mL/min/kg. Further, the Vd in the data set with Canis familiaris [1] is 11 L/kg; in [14] it was 5.1 L/kg. In addition, in data set [35], the Fa was 100%. In [2], this compound registered a pKa of 6.5. In data set [36], this compound displayed a bioavailability of 28%. Further, in [4], the clearance stood at 40 mL/min/kg. The figures for the fraction unbound at 1 µM in data set [6] and in [12] were 1 and 0.823, respectively. The same compound showed a half-life in data set [7] of 1.5 h. Further, the half-life at 1 µM in [9] stood at 0.6 h; in [10] it was 0.517 h. The compound further came in with a pH-dependent lipophilicity (logD) in data set [11] of 2.1. Further, the fraction unbound at 1 ug/ml in data set [13] is 0.45.

(Values after ChEMBL document CHEMBL1142226, “Impact of physicochemical and structural properties on the pharmacokinetics of a series of alpha1L-adrenoceptor antagonists” (Drug Metab Dispos, 2007).)
